Test results: patent US20040186022A1, “Enhanced herbicides” (priority 1999, published 2004)

Columns and labels:
[1] = test system: mixed weed varieties; assay: Field trial comparisons of caprylic/capric and pelargonic acids on mixed weed varieties (Example 57); assay type: in vivo; details: rating 1-5 for each of 2 plots per treatment group, 5 = complete desiccation; grasses (dominant), dandelion, pigweed, plantain and Canadian thistle
From the text: (§1) The herbicides were applied in the “spray to drip” amount or at a calibrated 20-60 gallons/acre. “Spray to drip” is an uncalibrated application of fluid to foliage, where sufficient spray volume is used to sufficiently saturate the foliage surface until excess fluid begins to drip from the foliage.

[2] = test system: mixed weed varieties; Canadian thistle; assay: Field trial comparisons of caprylic/capric and pelargonic acids on mixed weed varieties (Example 58); assay type: in vivo; details: rating 1-5 for each of 2 plots per treatment group, 5 = complete desiccation
From the text: as §1

[3] = test system: 60 G/a: velvetleaf, black nightshade, redroot pigweed, foxtail and snapbeans; spray to drip: black nightshade, velvetleaf, foxtail and snapbeans; assay: Efficacy of 1.5% succinic acid with oleic, caprylic or pelargonic acid in an emulsification system (Emsorb 6900); assay type: in vivo; set-up: Injury rating, total score for 2 evaluation, Spray to drip / Injury rating, total score for 2 evaluation, Total Rating: scale not given here
From the text: as §1

[4] = test system: barnyard grass, green foxtail, sudan grass and pigweed; assay: Enhancement of RoundUp Ultra (+/- ammonium sulfate) by succinic acid, 1 pint/acre, with Sylgard 309; assay type: in vivo; details: footnote
From the text: as §1

[5] = test system: 60 G/a: redroot pigweed, foxtail and velvetleaf; spray to drip: foxtail, dry beans and pigweed; assay: Herbicidal activity: caprylic acid and succinic acid +/- ammonium sulfate; assay type: in vivo; details: footnote
From the text: as §1

[6] = test system: 60 G/a: nightshade, pigweed, foxtail barnyard grass, sudan grass and cotton (DeltaPine NuCotn 33b); spray to drip: Kentucky bluegrass, nutsedge, barnyard …; assay: Herbicidal activities: succinic acid and caprylic/capric acid (c/c) combinations; assay type: in vivo; details: footnote
From the text: (§2) The herbicides were applied in the “spray to drip” amount or at a calibrated 20-60 gallons/acre. “Spray to drip” is an uncalibrated application of fluid to foliage, where sufficient spray volume is used to sufficiently saturate the foliage surface until excess fluid begins to drip from the foliage. In general, about 5 to 200 gallons/acre, preferably 20-100 gallons/acre can be effective.

[7] = test system: 60 G/a: redroot pigweed, velvetleaf, snapbeans, cotton and potatoes; spray to drip: black nightshade, lambsquarter, foxtail and snapbeans; details: footnote
From the text: as §1

[8] = test system: cotton plants, DeltaPine NuCotn 33-b, open boll; assay: Synergistic relationships between 5% caprylic/capric (c/c) and succinic acid: desiccation of cotton plants; assay type: in vivo; details: footnote
From the text: as §2

[9] = test system: Kentucky bluegrass, barnyard grass, crab grass, pigweed, redtop, nutsedge, wheat and foxtail; assay: Enhancement of RoundUp Ultra (+/- ammonium sulfate) by succinic acid, 1 pint/acre, no surfactant; assay type: in vivo; details: footnote
From the text: as §1

[10] = test system: Cotton (DeltaPine NuCotn 33b); assay: Synergistic relationship between caprylic/capric (c/c) and succinic acid as harvest aids, cotton; assay type: in vivo; details: footnote; cotton and potatoes
From the text: as §2

[11] = test system: cotton (DeltaPine NuCotn 33b) foliage; assay: Herbicidal activity on cotton foliage: succinic acid and caprylic/capric acid (c/c) combinations; assay type: in vivo; details: footnote
From the text: as §2

[12] = test system: 40 G/a: crab grass, chickweed and common lambsquarter; 60 G/a: redtop, pigweed, foxtail; spray to drip: barnyard grass, foxtail, sudan grass and nutsedge; assay: Herbicidal combinations of caprylic/capric (c/c) or pelargonic acid with equimolar succinic acid and ammonium succinate, on weed varieties; assay type: in vivo; details: footnote
[13] = test system: cotton (DeltaPine NuCotn 33b), potatoes (Snowden), pigweed, sudan grass, wheat, foxtail, dry beans and velvetleaf; assay: Synergistic relationships between 5% caprylic/capric (c/c) and succinic acid; assay type: in vivo; details: footnote
From the text: as §2

[14] = test system: sudan grass, green foxtail, barnyard grass and pigweed; assay: Enhancement of RoundUp Ultra (+/- ammonium sulfate) by succinic acid, 1 quart per acre; assay type: in vivo; details: footnote
From the text: as §1

[15] = test system: Kentucky bluegrass, velvetleaf, foxtail, tomato, potato and snapbeans
From the text: as §1

[16] = test system: Turf and Shrub Foliage; details: 1, 2, 4 and 7 days after a single foliar application, 5 equals profound desiccation
From the text: as §1

[17] = Measurement of pH values for test desiccants (Example 55); assay type: physicochemical
[18] = test system: soybeans; assay: Synergistic relationships between succinic acid and caprylic acid at different application rates, testing soybeans; assay type: in vivo; details: 2 days after a single foliar application, average of 2 sites, soybean Stine 2250; for Overall Effect: 5 equals profound desiccation
From the text: as §1

[19] = test system: Cotton; details: 2 days after a single foliar application
From the text: as §1

[20] = test system: Turf; assay: Synergistic relationships between succinic acid and caprylic acid (or sodium salicylate), testing turf; assay type: in vivo; details: 2 days after a single foliar application, 5 equals profound desiccation
From the text: as §1

[21] = test system: 60 G/a: lambsquarter, pigweed, velvetleaf and foxtail; spray to drip: velvetleaf and foxtail; assay: Herbicidal activity of caprylic acid combined with salts of succinate +/- sodium salicylate; assay type: in vivo
From the text: as §1

[22] = test system: 60 G/a: black nightshade, redroot pigweed, lambsquarter, foxtail, velvetleaf and snapbeans; spray to drip: redroot pigweed, lambsquarter, velvetleaf and …; assay: Efficacy of 2% caprylic with succinic or ammonium succinate in an emulsification system (Emsorb 6900); assay type: in vivo
From the text: as §1

[23] = test system: young potato plants; assay: Effects of desiccants and desiccant combinations with other compounds on young potato plants; assay type: in vivo; set-up: All evaluations (total score): scale not given here
From the text: as §1

[24] = test system: Turf and Covergrass; assay: Effects of various compounds on caprylic acid, testing turf and covergrass; assay type: in vivo; details: 1, 3, 6, 7 and 11 days after a single foliar application at two independent sites, 5 equals profound desiccation
From the text: as §1

[25] = Measurement of pH values for test desiccants (Example 56); assay type: physicochemical
[26] = test system: Turf and Shrub Foliage; assay: Effects of various compounds on caprylic acid, testing turf and shrub foliage; assay type: in vivo; details: 3, 4, 6 and 7 days after a single foliar application, 5 equals profound desiccation
From the text: as §1

[27] = test system: Redwood pigweed; assay: Field trial comparisons of caprylic/capric and pelargonic acids, redroot pigweed (Example 58); assay type: in vivo; details: rating 1-5 for each of 2 plots per treatment group, 5 = complete desiccation
[28] = test system: 60 G/a: lambsquarter, foxtail and velvetleaf; spray to drip: snapbeans, corn and tomatoes; assay: Succinic acid enhancement of oleic acid/sodium salicylate herbicidal activity (60 G/a and spray to drip); assay type: in vivo
From the text: as §1

[29] = test system: lambsquarter, velvetleaf, foxtail, nutsedge and potatoes; assay: Succinic acid enhancement of oleic acid/sodium salicylate herbicidal activity (spray to drip); assay type: in vivo
From the text: as §1

[30] = test system: soybeans; assay: Synergistic relationships: succinic acid + caprylic acid, succinic acid + sodium salicylate, testing soybeans; assay type: in vivo; details: 3 days after a single foliar application, soybean Stine 2250
From the text: as §1

[31] = 60 G/a, rating 1-5 per pot, 1% Emsorb, 0.3% Hasten

For `CCCCCCCCC(=O)O` [3% pelargonic, pelargonic acid], the “Average injury rating per plot” value [1] was 4.175, the “Average injury rating per plot” value [2] was 4.03 and the “Injury rating, total score for 2 evaluation, Total Rating” value ([3]; 60 G/a plus spray to drip) was 122.9. For the same molecule, the “Injury rating, total score for 2 evaluation, 60 G/a” value [3, 31] was 85.3, the “Average rating per pot” value ([3]; scale 1-5) was 4.39 and the “Injury rating, total score for 2 evaluation, Spray to drip” value ([3]; spray to drip) was 37.6.
With `O=C(O)CCC(=O)O` [succinic acid] the “Rating of succinic acid tested alone” value [4] was “Succinic acid tested alone had a rating of zero. RoundUp Ultra, alone or RoundUp Ultra + ammonium sulfate were synergistic with succinic acid”, the “Rating of succinic acid alone” value ([3]; footnote) was “Succinic acid, alone, had a rating of zero. Succinic acid was synergistic with oleic, caprylic and pelargonic acids” and the “Rating of succinic acid alone” value [5] was “Succinic acid, alone, had a rating of zero. Caprylic acid + succinic acid was synergistic”. The “Rating of succinic acid alone” value [6] was “Since succinic acid, alone had a rating of zero, caprylic/capric + succinic acid was synergistic”, the “Rating of succinic acid alone” value [7] was “Succinic acid, alone, had a rating of zero. Succinic acid was synergistic with oleic, caprylic and pelargonic acids” and the “Rating of succinic acid alone” value [8] was “Treatment of plants with succinic acid, alone, had a rating of zero”. For the same molecule, the “Rating of succinic acid tested alone” value [9] was “Succinic acid tested alone had a rating of zero. RoundUp Ultra, alone or RoundUp Ultra + ammonia sulfate were synergistic with succinic acid”, the “Rating of succinic acid alone” value [10] was “Treatment of plants with succinic acid, alone, had a rating of zero” and the “Rating of succinic acid tested alone” value [11] was “Since succinic acid tested alone had a rating of zero, caprylic/capric + succinic acid was synergistic”. The “Rating of additive tested alone” value [12] was “Since succinic acid (or ammonium succinate) tested alone had a rating of zero, pelargonic acid (or c/c) + succinic acid (or ammonium succinate) were synergistic. The exception was: 3% pelargonic acid + 1.26% ammonium succinate”, the “Rating of succinic acid alone” value [13] was “Treatment of plants with succinic acid, alone, had a rating of zero” and the “Rating of succinic acid tested alone” value [14] was “Succinic acid tested alone had a rating of zero. RoundUp Ultra, alone or RoundUp Ultra + ammonium sulfate were synergistic with succinic acid”.
With `O=C([O-])c1ccccc1O.[Na+]` [1.5% sodium salicylate, sodium salicylate] the “Injury rating, Spray to drip” value ([15]; rating 1-5 per pot, three evaluations, 30% acetone, 0.3% Sylgard 309) was 56.2 and the “Injury rating, Average rating per pot” value ([15]; scale 1-5, spray to drip) was 3.51.
In the case of `O=C(O)CCC(=O)O` [Succinic Acid (2%)], the “Overall effect, 17 evaluations (average)” value [16] is reported as 0.24.
With `O=C(O)CCC(=O)O` [Succinic Acid (1.0%)] the “pH Value” [17] was 1.85, the “Foliage Affected (%)” value [18] was 0% and the “Overall Effect” value [18] was 0. For the same molecule, the “Foliage Affected (%)” value [19] was “No effect”.
For `O=C(O)CCC(=O)O` [Succinic Acid (0.5)], the “Overall Effect” value [20] was 0.
For `O=C([O-])c1ccccc1O.[Na+]` [Sodium Salicylate (1.0%)], the “pH Value” [17] was 5.63, the “Overall Effect” value [20] was 1.5 and the “Foliage Affected (%)” value [19] was less than 70%.
With `CCCCCCCC(=O)O` [2% caprylic, caprylic acid] the “Total Injury ratings, Total score” value ([21]; 60 G/a plus spray to drip) was 69.2, the “Total injury ratings, 60 G/a” value ([21]; 60 G/a, 8 pots/treatment, 2 evaluations, rating 1-5 per pot, 1% Emsorb 6900) was 61 and the “Total injury ratings, Spray to drip” value ([21]; spray to drip, 2 pots/treatment, velvetleaf and foxtail, 1 evaluation) was 8.2. The “Injury rating, total score for 2 evaluations, Total Rating” value ([22]; 60 G/a plus spray to drip) was 123.4, the “Injury rating, total score for 2 evaluations, 60 G/a” value [22, 31] was 73.6 and the “Average rating per pot” value ([22]; scale 1-5) was 4.11. The “Injury rating, total score for 2 evaluations, Spray to drip” value ([22]; spray to drip) was 49.8, the “Injury ratings of treated plants, day 1” value ([23]; 1 day after application, 6 = complete desiccation) was 5 and the “Injury ratings of treated plants, day 3” value ([23]; 3 days after application, 6 = complete desiccation) was 5. The “Injury ratings of treated plants, day 6” value ([23]; 6 days after application, 6 = complete desiccation) was 5, the “Injury ratings of treated plants, day 17” value ([23]; 17 days after application, 6 = complete desiccation) was 5 and the “Injury ratings of treated plants, day 22” value ([23]; 22 days after application, 6 = complete desiccation) was 5.5. For the same molecule, the “Injury ratings of treated plants, day 27” value ([23]; 27 days after application, 6 = complete desiccation) was 5.5, the “Injury ratings of treated plants, […]” value ([23]; […] after application, 6 = complete desiccation) was 3.5 and the “All evaluations (total score)” value ([23]; total of all evaluation times) was 34.5.
With `CCCCCCCC(=O)O` [Caprylic Acid (1.0%)] the “pH Value” [17] was 3.93, the “Foliage Affected (%)” value [18] was 22.3% and the “Overall Effect” value [18] was 4. For the same molecule, the “Overall Effect, 10 Evaluations (average)” value [24] was 2.45, the “pH Value” [25] was 3.85 and the “Overall Effect” value [20] was 2. For the same molecule, the “Overall Effect, 29 Evaluations (average)” value [26] was 1.05.
For `CCCCCCCCC(=O)O` [6% pelargonic], the “Average injury rating per plot” value [27] was 4.35.
With `CCCCCCCC/C=C\CCCCCCCC(=O)O` [2% oleic acid, oleic acid] the “Total Injury rating, Total” value ([28]; 60 G/a plus spray to drip) was 45.8, the “Total Injury rating, 60 G/a” value ([28]; 60 G/a, lambsquarter, foxtail and velvetleaf, rating 1-5 per pot, two evaluations) was 23.5 and the “Average rating per pot” value ([28]; scale 1-5, 60 G/a and spray to drip) was 1.91. The “Total injury rating (sum over pots and evaluations)” value ([29]; rating 1-5 per pot, two evaluations, 50% acetone, 0.3% Sylgard 309) was 26.4 and the “Injury rating, Average rating per pot” value ([29]; scale 1-5, spray to drip) was 2.2.
For `O=C([O-])c1ccccc1O.[Na+]` [Sodium Salicylate (1%)], the “Overall effect, 17 evaluations (average)” value [16] was 1.35, the “Foliage Affected (%)” value [30] was 15-20% and the “Overall Effect” value ([30]; 5 equals profound desiccation) was 1.5.
